Values joined by “and” are separate entries in the source; they are usually repeats but may differ in a detail not shown here. Equal values may be shown once. Read-outs that look alike come from different tables or passages of the source.
What was measured:
[1] = In vitro BBB permeability study (Papp), triple co-culture BBB model; details: human
[2] = tested on: triple co-culture BBB model (hCMEC/D3, U251 and SH-SY5Y cells); assay: as above
[3] = BBB permeability in brain-specific Gdnf knockdown mice (brain distribution of fluorescein and FITC-Dex); details: Gdnf silencing (shGdnf) vs shNC mice; i.v., 30 min
[4] = In vitro BBB permeability study (Papp), hCMEC/D3 mono-culture BBB model; details: human
[5] = tested on: hCMEC/D3 mono-culture BBB model; assay: as above
[6] = In vitro BBB permeability study (Papp), double co-culture with SH-SY5Y cells (h+S); assay type: in vitro ADME, Homo sapiens; details: human, group h+S, Figure 1D/1E
[7] = tested on: double co-culture BBB model (hCMEC/D3 and SH-SY5Y cells); assay: as above; assay type: in vitro ADME, Homo sapiens; details: group h+S, Figure 1D/1E; single biological replicate; listed as NaF
[8] = tested on: double co-culture BBB model (hCMEC/D3 and U251 cells); assay: In vitro BBB permeability study (Papp), double co-culture with U251 cells (h+U); assay type: in vitro ADME, Homo sapiens; details: group h+U, Figure 1D/1E; single biological replicate; listed as NaF
[9] = as above; assay type: in vitro ADME, Homo sapiens; details: human, group h+U, Figure 1D/1E
[10] = Permeability (Papp) across U251 mono-culture model; assay type: in vitro ADME, Homo sapiens; details: human, group U251 mono-culture, Figure 1F
U251 cells monolayer = assay: Permeability (Papp) across U251 mono-culture model; assay type: in vitro ADME, Homo sapiens; details: group U251 mono-culture, Figure 1F; single replicate
[11] = Permeability (Papp) across the blank inserts; assay type: in vitro ADME; details: blank inserts (no cells), Figure 1F; for Papp at 30 min: not told
Method: Therefore, the subsequent experiments were all completed on day 6. The culture medium was removed from the apical and basolateral sides of the inserts and washed twice with preheated Hank’s balanced salt solution (HBSS). Fresh HBSS was then added to both the apical and basolateral chambers. […] Next, 200 μl aliquots were collected from the basolateral chamber after 30 min of incubation at 37°C. The concentrations of the tested agents in the basolateral chamber were measured.
The apparent permeability coefficient (Papp, cm/s) values of the tested agents across the in vitro BBB model were calculated using the equation ([Tavelin et al., 2002]):(1) Papp=(Q/1800)/(S×C0)
where S is the surface area of the insert membrane (0.33 cm^2 for 6.5 mm inserts, 4.46 cm^2 for 24 mm inserts), Q is the transported amount of the tested agents transported from the donor chamber to the receiver chamber for 30 min (1800 s), and C0 is the initial concentration of the tested agents in the donor chamber.

[12] = mean of four replicates, read-out: Papp Mean
[13] = single biological replicate, read-out: Papp
[14] = single replicate, read-out: Papp

- Papp A→B at 30 min ([1]; Papp Mean, Triple group, mean of 4, Figure 2R): 25 ×10⁻⁶ cm/s
- Papp A→B at 30 min ([1]; Papp Mean, Triple group, mean of 4, Figure 2T): 20.5 ×10⁻⁶ cm/s
- Papp A→B at 30 min ([1]; Papp Mean, Triple+PP2 group, mean of 4, Figure 2T): 27.5 ×10⁻⁶ cm/s
- Papp A→B at 30 min ([1]; Papp Mean, Triple+SPP group, mean of 4, Figure 2R): 30 ×10⁻⁶ cm/s
- Papp A→B at 30 min ([1]; Papp Mean, group h+S+U, Figure 1D/1E, mean of four replicates): 24.9 ×10⁻⁶ cm/s
- Papp A→B at 30 min ([1]; Papp(cm/s), group h+S+U, Figure 1D/1E, single biological replicate): 26.1 ×10⁻⁶ cm/s
- Papp A→B at 30 min ([1]; Papp, Triple group, single replicates, Figure 2R): 25.3 ×10⁻⁶ cm/s
- Papp A→B at 30 min ([1]; Papp, Triple group, single replicates, Figure 2T): 21.5 ×10⁻⁶ cm/s
- Papp A→B at 30 min ([1]; Papp, Triple+PP2 group, single replicates, Figure 2T): 28.2 ×10⁻⁶ cm/s
- Papp A→B at 30 min ([1]; Papp, Triple+SPP group, single replicates, Figure 2R): 30.6 ×10⁻⁶ cm/s
- Papp A→B ([2]; read-out: Papp(cm/s), group h+S+U, Figure 1D/1E, single biological replicate, listed as NaF): 26.4 ×10⁻⁶ cm/s and 23.5 ×10⁻⁶ cm/s and 23.6 ×10⁻⁶ cm/s
- Papp A→B ([2]; read-out: Papp, Triple group, single replicates, Figure 2R): 24.7 ×10⁻⁶ cm/s and 24.9 ×10⁻⁶ cm/s and 25 ×10⁻⁶ cm/s
- Papp A→B ([2]; read-out: Papp, Triple group, single replicates, Figure 2T): 20.2 ×10⁻⁶ cm/s and 20.5 ×10⁻⁶ cm/s and 19.8 ×10⁻⁶ cm/s
- Papp A→B ([2]; read-out: Papp, Triple+PP2 group, single replicates, Figure 2T): 26.4 ×10⁻⁶ cm/s
- Papp A→B ([2]; read-out: Papp, Triple+SPP group, single replicates, Figure 2R): 29.1 ×10⁻⁶ cm/s and 30.2 ×10⁻⁶ cm/s
- brain-to-plasma concentration ratios [3]: notable increases
- Papp A→B at 30 min ([4]; Papp Mean, Mono group, mean of 4, Figure 2R): 31.8 ×10⁻⁶ cm/s
- Papp A→B at 30 min ([4]; Papp Mean, Mono group, mean of 4, Figure 2T): 30.4 ×10⁻⁶ cm/s
- Papp A→B at 30 min ([4]; Papp Mean, group h, Figure 1D/1E, mean of four replicates): 32.2 ×10⁻⁶ cm/s
- Papp A→B at 30 min ([4]; Papp Mean, group hCEMC/D3 mono-culture, Figure 1F, mean of four replicates): 35.7 ×10⁻⁶ cm/s
- Papp A→B at 30 min ([4]; Papp(cm/s) Mean, Figure 2N, group GDNF+SPP, group mean): 24.5 ×10⁻⁶ cm/s
- Papp A→B at 30 min ([4]; Papp(cm/s) Mean, Figure 2N, group GDNF, group mean): 19 ×10⁻⁶ cm/s
- Papp A→B at 30 min ([4]; Papp(cm/s) Mean, Figure 2N, group Mono, group mean): 23.8 ×10⁻⁶ cm/s
- Papp A→B at 30 min ([4]; Papp(cm/s) Mean, Figure 2P, group GDNF+PP2, group mean): 28.2 ×10⁻⁶ cm/s
- Papp A→B at 30 min ([4]; Papp(cm/s) Mean, Figure 2P, group GDNF, group mean): 23.5 ×10⁻⁶ cm/s
- Papp A→B at 30 min ([4]; Papp(cm/s) Mean, Figure 2P, group Mono, group mean): 30.8 ×10⁻⁶ cm/s
- Papp A→B at 30 min ([4]; Papp(cm/s), Figure 2N, group GDNF+SPP, individual replicates): 26.5 ×10⁻⁶ cm/s
- Papp A→B at 30 min ([4]; Papp(cm/s), Figure 2N, group GDNF, individual replicates): 19.4 ×10⁻⁶ cm/s
- Papp A→B at 30 min ([4]; Papp(cm/s), Figure 2N, group Mono, individual replicates): 21.9 ×10⁻⁶ cm/s
- Papp A→B at 30 min ([4]; Papp(cm/s), Figure 2P, group GDNF+PP2, individual replicates): 27.5 ×10⁻⁶ cm/s
- Papp A→B at 30 min ([4]; Papp(cm/s), Figure 2P, group GDNF, individual replicates): 23.6 ×10⁻⁶ cm/s
- Papp A→B at 30 min ([4]; Papp(cm/s), Figure 2P, group Mono, individual replicates): 31 ×10⁻⁶ cm/s
- Papp A→B at 30 min ([4]; Papp(cm/s), group h, Figure 1D/1E, single biological replicate): 31.7 ×10⁻⁶ cm/s
- Papp A→B at 30 min ([4]; Papp(cm/s), group hCEMC/D3 mono-culture, Figure 1F, single replicate): 36.2 ×10⁻⁶ cm/s
- Papp A→B at 30 min ([4]; Papp, Mono group, single replicates, Figure 2R): 30.7 ×10⁻⁶ cm/s
- Papp A→B at 30 min ([4]; Papp, Mono group, single replicates, Figure 2T): 30.8 ×10⁻⁶ cm/s
- Papp A→B ([5]; read-out: Papp(cm/s), Figure 2N, group GDNF+SPP, individual replicates): 22 ×10⁻⁶ cm/s and 26.7 ×10⁻⁶ cm/s
- Papp A→B ([5]; read-out: Papp(cm/s), Figure 2N, group GDNF, individual replicates): 17.7 ×10⁻⁶ cm/s and 20.6 ×10⁻⁶ cm/s and 18.3 ×10⁻⁶ cm/s
- Papp A→B ([5]; read-out: Papp(cm/s), Figure 2N, group Mono, individual replicates): 24.3 ×10⁻⁶ cm/s and 25.1 ×10⁻⁶ cm/s and 23.7 ×10⁻⁶ cm/s
- Papp A→B ([5]; read-out: Papp(cm/s), Figure 2P, group GDNF+PP2, individual replicates): 28.3 ×10⁻⁶ cm/s
- Papp A→B ([5]; read-out: Papp(cm/s), Figure 2P, group GDNF, individual replicates): 23.3 ×10⁻⁶ cm/s (2×) and 23.8 ×10⁻⁶ cm/s
- Papp A→B ([5]; read-out: Papp(cm/s), Figure 2P, group Mono, individual replicates): 30.5 ×10⁻⁶ cm/s and 31.5 ×10⁻⁶ cm/s and 30.3 ×10⁻⁶ cm/s
- Papp A→B ([5]; read-out: Papp(cm/s), group h, Figure 1D/1E, single biological replicate, listed as NaF): 32 ×10⁻⁶ cm/s and 32.7 ×10⁻⁶ cm/s and 32.5 ×10⁻⁶ cm/s
- Papp A→B ([5]; read-out: Papp(cm/s), group hCEMC/D3 mono-culture, Figure 1F, single replicate): 35.9 ×10⁻⁶ cm/s and 34.8 ×10⁻⁶ cm/s and 36 ×10⁻⁶ cm/s
- Papp A→B ([5]; read-out: Papp, Mono group, single replicates, Figure 2R): 31.7 ×10⁻⁶ cm/s and 33.3 ×10⁻⁶ cm/s and 31.4 ×10⁻⁶ cm/s
- Papp A→B ([5]; read-out: Papp, Mono group, single replicates, Figure 2T): 29.5 ×10⁻⁶ cm/s and 30.3 ×10⁻⁶ cm/s
- Papp A→B at 30 min [6, 12]: 27.8 ×10⁻⁶ cm/s
- Papp A→B at 30 min [6, 13]: 29.4 ×10⁻⁶ cm/s
- Papp A→B [7]: 29.1 ×10⁻⁶ cm/s and 23.2 ×10⁻⁶ cm/s and 29.5 ×10⁻⁶ cm/s
- Papp A→B [8]: 30.2 ×10⁻⁶ cm/s and 29.6 ×10⁻⁶ cm/s and 28.1 ×10⁻⁶ cm/s
- Papp A→B at 30 min [9, 12]: 29.1 ×10⁻⁶ cm/s
- Papp A→B at 30 min [9, 13]: 28.2 ×10⁻⁶ cm/s
- Papp A→B at 30 min [10, 12]: 30.6 ×10⁻⁶ cm/s
- Papp A→B at 30 min [10, 14]: 29.5 ×10⁻⁶ cm/s
- Papp A→B (U251 cells monolayer): 30.6 ×10⁻⁶ cm/s and 31.9 ×10⁻⁶ cm/s and 30.2 ×10⁻⁶ cm/s
- Papp at 30 min [11, 12]: 71.6 ×10⁻⁶ cm/s
- Papp at 30 min [11, 14]: 68.7 ×10⁻⁶ cm/s
SMILES: O=C1OC2(c3ccc(O)cc3Oc3cc(O)ccc32)c2ccccc21 [fluorescein, fluorescein sodium]
- Papp ([11]; single replicate): 72.71 ×10⁻⁶ cm/s and 72.14 ×10⁻⁶ cm/s and 72.59 ×10⁻⁶ cm/s
